# Paper PMC9516332 (Frontiers in Oncology, 2022)
# Where two headings read alike, the source gives them in different places.
# Legend:
# 134 cancer cell lines = assay: Cell viability assay (ATPlite, 72 hours), IC50 on cancer cell line panel
# AP-1060 (ETV6-NTRK3) = assay: Cell viability assay; settings: read-out: IC50 in cell proliferation assay
compound,measurement,setting,value
CC#CC(=O)N1CCC[C@H]1c1nc(-c2ccc(C(=O)Nc3ccccn3)cc2)c2c(N)nccn12 [acalabrutinib],IC50,"134 cancer cell lines; Homo sapiens, MCF7, read-out: IC50 in cell proliferation assay",> 31.6 µM
same,IC50,"134 cancer cell lines; Homo sapiens, MDA-MB-231, read-out: IC50 in cell proliferation assay",> 31.6 µM
same,IC50,"134 cancer cell lines; Homo sapiens, MDA-MB-453, read-out: IC50 in cell proliferation assay",> 31.6 µM
same,IC50,"134 cancer cell lines; Homo sapiens, MDA-MB-468, read-out: IC50 in cell proliferation assay",> 31.6 µM
same,IC50,"134 cancer cell lines; Homo sapiens, MG-63, read-out: IC50 in cell proliferation assay",> 31.6 µM
same,IC50,"134 cancer cell lines; Homo sapiens, MIA PaCa-2, read-out: IC50 in cell proliferation assay",> 31.6 µM
same,IC50,"134 cancer cell lines; Homo sapiens, MKN-45, read-out: IC50 in cell proliferation assay",> 31.6 µM
same,IC50,"134 cancer cell lines; Homo sapiens, MOLM-13, read-out: IC50 in cell proliferation assay",9.38 µM
same,IC50,"134 cancer cell lines; Homo sapiens, MOLT-4, read-out: IC50 in cell proliferation assay",> 31.6 µM
same,IC50,"134 cancer cell lines; Homo sapiens, MV4-11, read-out: IC50 in cell proliferation assay",> 31.6 µM
same,IC50,"134 cancer cell lines; Homo sapiens, MeWo, read-out: IC50 in cell proliferation assay",> 31.6 µM
same,IC50,"134 cancer cell lines; Homo sapiens, NCCIT, read-out: IC50 in cell proliferation assay",> 31.6 µM
same,IC50,"134 cancer cell lines; Homo sapiens, NCI-H82, read-out: IC50 in cell proliferation assay",> 31.6 µM
same,IC50,"134 cancer cell lines; Homo sapiens, NCI-H460, read-out: IC50 in cell proliferation assay",> 31.6 µM
same,IC50,"134 cancer cell lines; Homo sapiens, NCI-H661, read-out: IC50 in cell proliferation assay",11 µM
same,IC50,"134 cancer cell lines; Homo sapiens, NCI-H716, read-out: IC50 in cell proliferation assay",> 31.6 µM
same,IC50,"134 cancer cell lines; Homo sapiens, NCI-H1650, read-out: IC50 in cell proliferation assay",> 31.6 µM
same,IC50,"134 cancer cell lines; Homo sapiens, NCI-H1975, read-out: IC50 in cell proliferation assay",> 31.6 µM
same,IC50,"134 cancer cell lines; Homo sapiens, NCI-H2228, read-out: IC50 in cell proliferation assay",> 31.6 µM
same,IC50,"134 cancer cell lines; Homo sapiens, OVCAR-3, read-out: IC50 in cell proliferation assay",> 31.6 µM
same,IC50,"134 cancer cell lines; Homo sapiens, PFSK-1, read-out: IC50 in cell proliferation assay",> 31.6 µM
same,IC50,"134 cancer cell lines; Homo sapiens, RL95-2, read-out: IC50 in cell proliferation assay",> 31.6 µM
same,IC50,"134 cancer cell lines; Homo sapiens, RPMI-7951, read-out: IC50 in cell proliferation assay",> 31.6 µM
same,IC50,"134 cancer cell lines; Homo sapiens, RS4-11, read-out: IC50 in cell proliferation assay",> 31.6 µM
same,IC50,"134 cancer cell lines; Homo sapiens, Rec1, read-out: IC50 in cell proliferation assay",0.021 µM
same,IC50,"134 cancer cell lines; Homo sapiens, SHP77, read-out: IC50 in cell proliferation assay",> 31.6 µM
same,IC50,"134 cancer cell lines; Homo sapiens, SK-BR-3, read-out: IC50 in cell proliferation assay",0.409 µM
same,IC50,"134 cancer cell lines; Homo sapiens, SK-N-AS, read-out: IC50 in cell proliferation assay",> 31.6 µM
same,IC50,"134 cancer cell lines; Homo sapiens, SK-N-FI, read-out: IC50 in cell proliferation assay",> 31.6 µM
same,IC50,"134 cancer cell lines; Homo sapiens, SK-N-MC, read-out: IC50 in cell proliferation assay",> 31.6 µM
same,IC50,"134 cancer cell lines; Homo sapiens, SK-N-SH, read-out: IC50 in cell proliferation assay",9.87 µM
same,IC50,"134 cancer cell lines; Homo sapiens, SNU-5, read-out: IC50 in cell proliferation assay",> 31.6 µM
same,IC50,"134 cancer cell lines; Homo sapiens, SNU-16, read-out: IC50 in cell proliferation assay",> 31.6 µM
same,IC50,"134 cancer cell lines; Homo sapiens, SNU-C2B, read-out: IC50 in cell proliferation assay",> 31.6 µM
same,IC50,"134 cancer cell lines; Homo sapiens, SU-DHL-1, read-out: IC50 in cell proliferation assay",> 31.6 µM
same,IC50,"134 cancer cell lines; Homo sapiens, SU-DHL-6, read-out: IC50 in cell proliferation assay",0.003 µM
same,IC50,"134 cancer cell lines; Homo sapiens, SUP-T1, read-out: IC50 in cell proliferation assay",> 31.6 µM
same,IC50,"134 cancer cell lines; Homo sapiens, SW48, read-out: IC50 in cell proliferation assay",4.43 µM
same,IC50,"134 cancer cell lines; Homo sapiens, SW480, read-out: IC50 in cell proliferation assay",> 31.6 µM
same,IC50,"134 cancer cell lines; Homo sapiens, SW626, read-out: IC50 in cell proliferation assay",> 31.6 µM
same,IC50,"134 cancer cell lines; Homo sapiens, SW780, read-out: IC50 in cell proliferation assay",> 31.6 µM
same,IC50,"134 cancer cell lines; Homo sapiens, SW837, read-out: IC50 in cell proliferation assay",> 31.6 µM
same,IC50,"134 cancer cell lines; Homo sapiens, SW872, read-out: IC50 in cell proliferation assay",> 31.6 µM
same,IC50,"134 cancer cell lines; Homo sapiens, SW900, read-out: IC50 in cell proliferation assay",> 31.6 µM
same,IC50,"134 cancer cell lines; Homo sapiens, SW948, read-out: IC50 in cell proliferation assay",> 31.6 µM
same,IC50,"134 cancer cell lines; Homo sapiens, SW982, read-out: IC50 in cell proliferation assay",> 31.6 µM
same,IC50,"134 cancer cell lines; Homo sapiens, SW-620, read-out: IC50 in cell proliferation assay",> 31.6 µM
same,IC50,"134 cancer cell lines; Homo sapiens, T98G, read-out: IC50 in cell proliferation assay",> 31.6 µM
same,IC50,"134 cancer cell lines; Homo sapiens, TCC-SUP, read-out: IC50 in cell proliferation assay",> 31.6 µM
same,IC50,"134 cancer cell lines; Homo sapiens, THP-1, read-out: IC50 in cell proliferation assay",> 31.6 µM
same,IC50,"134 cancer cell lines; Homo sapiens, U2OS, read-out: IC50 in cell proliferation assay",> 31.6 µM
same,IC50,"134 cancer cell lines; Homo sapiens, U-87 MG, read-out: IC50 in cell proliferation assay",> 31.6 µM
same,IC50,"134 cancer cell lines; Homo sapiens, U-118-MG, read-out: IC50 in cell proliferation assay",> 31.6 µM
same,IC50,"134 cancer cell lines; Homo sapiens, UMUC3, read-out: IC50 in cell proliferation assay",> 31.6 µM
same,IC50,"134 cancer cell lines; Hs766T, read-out: IC50 in cell proliferation assay",> 31.6 µM
same,IC50,"134 cancer cell lines; L-82, read-out: IC50 in cell proliferation assay",> 31.6 µM
same,IC50,"134 cancer cell lines; Rh30, read-out: IC50 in cell proliferation assay",> 31.6 µM
same,IC50,AP-1060 (ETV6-NTRK3),> 31.6 µM
